Marks after values point to notes of the source that are not given here.
Columns and labels:
[1] = biological target: T1, CETP (Homo sapiens, UniProt P11597); test: Measurement of CETP inhibitory action in human plasma; type: biochemical; details: incubated with compound 37° C. 4 hours, Roar Biomedical CETP Activity kit, read-out: IC50 (concentration inhibiting the CETP activity by 50%)
T1 construct: The CETP activity in this plasma was measured with Cholesteryl Ester Transfer Protein Activity kit; from tissue; host or cells: human plasma
T1 sequence (P11597 18-493): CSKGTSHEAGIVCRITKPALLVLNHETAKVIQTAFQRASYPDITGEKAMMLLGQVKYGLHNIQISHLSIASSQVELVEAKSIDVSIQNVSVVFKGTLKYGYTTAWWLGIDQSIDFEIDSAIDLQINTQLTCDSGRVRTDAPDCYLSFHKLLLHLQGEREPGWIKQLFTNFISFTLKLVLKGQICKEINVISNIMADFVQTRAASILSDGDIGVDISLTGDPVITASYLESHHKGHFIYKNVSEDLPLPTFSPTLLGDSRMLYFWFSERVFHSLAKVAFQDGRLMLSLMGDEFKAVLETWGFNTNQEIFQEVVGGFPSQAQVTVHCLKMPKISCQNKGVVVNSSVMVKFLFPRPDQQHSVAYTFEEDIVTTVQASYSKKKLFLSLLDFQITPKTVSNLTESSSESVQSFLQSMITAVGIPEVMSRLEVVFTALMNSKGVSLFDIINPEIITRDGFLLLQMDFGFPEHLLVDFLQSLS
Experimental: A solution obtained by dissolving an exemplary compound in polyethylene glycol/N-methyl-2-pyrrolidone (vol/vol=1/1) was added to human plasma, and the mixture was incubated in an incubator at 37° C. for 4 hours. The CETP activity in this plasma was measured with Cholesteryl Ester Transfer Protein Activity kit (Roar Biomedical, catalog No.: RB-CETP). Specifically, to each well of a 96-well plate, 95 μL of a buffer (10 mM Tris, 150 mM NaCl, 2 mM EDTA, pH 7.4), 2 μL of Donor particle and 2 μL of Acceptor particle were added, 1 μL of the human plasma after the incubation was added to the mixture, and the mixture was incubated in an incubator at 37° C. for 2 hours. After completion of the incubation, fluorescence intensity (FLU) was measured with a fluorescence plate reader (excitation wavelength: 465 nm, emission wavelength: 535 nm). In accordance with the following equation 1, the CETP activity (% of control) was obtained for the compounds of the examples for two or more concentrations. CETP activity (% of control)=(Sample FLU−Blank FLU)×100/(Control FLU−Blank FLU) (Equation 1)
In the equation, the terms have the following meanings: […]
Blank FLU: Fluorescence intensity of sample not added with plasma
Control FLU: Fluorescence intensity of plasma not added with solution of compound
Sample FLU: Fluorescence intensity of plasma added with solution of compound
A value obtained by subtracting the value of the CETP activity from 100 was defined as the CETP inhibitory rate of each exemplary compound, and a concentration inhibiting the CETP activity by 50% (IC50) was calculated for each exemplary compound from the values of the CETP inhibitory rate at two or more concentrations.

[2] = system: normal hamsters; test: Measurement of blood HDL cholesterol increasing action in normal hamsters; type: in vivo, male Syrian Hamsters; details: for Average HDL cholesterol level ± SD: plasma 2 hours after administration on day 7, n = 5; for HDL cholesterol increasing ratio: relative to control group
From the text: N-{1-[3,5-Bis(trifluoromethyl)phenyl]ethyl}-N-({2-[(cyclopentylmethyl)(ethyl)amino]-5-(trifluoromethyl)phenyl}methyl)-5-[2-(methylsulfonyl)ethoxy]pyrimidin-2-amine (Example 3), or 4(S)-[(3,5-bis-trifluoromethylbenzyl)methoxycarbonylamino]-2(R)-ethyl-6-trifluoromethyl-3,4-dihydro-2H-quinoline-1-carboxylic acid ethyl ester (Torcetrapib) disclosed in International Patent Publication WO2000/17164 was suspended in a 5% Tween 80 solution (control vehicle), and then repeatedly administered to normal hamsters (male Syrian Hamsters) by oral administration once a day over 7 days by using a metal catheter. Two hours after the administration on day 7 of the administration, blood was collected, and plasma was obtained. Plasma lipoproteins were analyzed by automatic measurement using a HPLC system based on the postlabeling method according to the method described in J. Lipid. Res., 43, pp. 805-814. Specifically, 15 μL of a plasma sample was diluted 10 times with PBS containing 1 mM EDTA, and then injected in a volume of 80 μL into a gel filtration column (Superose 6 column, column size: 10×300 mm, GE Healthcare Bioscience) connected to a HPLC system (liquid feeding unit: Shimadzu LC-20A System, Shimadzu). Separation was performed by using PBS containing 1 mM EDTA as a running buffer at a flow rate of 0.5 mL/min and at a column temperature of 40° C. The eluate from the column was mixed with a cholesterol measurement reagent (Cholesterol E-Test Wako, Wako Pure Chemical Industries) at a flow rate of 0.25 mL/min, and the reaction was allowed in a reaction coil (0.5 mm×15 m) at 40° C. during the feeding. Cholesterols in the eluate from the reaction coil were detected at a wavelength of 600 nm. An area ratio of the HDL fraction relative to the total area of the obtained cholesterols was calculated, and HDL cholesterol level was calculated by multiplying the total cholesterol level measured beforehand using Cholesterol E Test Wako by the area ratio of the HDL fraction. Five normal hamsters grouped beforehand on the basis of the total plasma cholesterol level were used for each of the control group (control vehicle administration group) and the compound administration groups (groups administered with the compound of Example 3 at 10 mg/kg, 30 mg/kg and 100 mg/kg, and Torcetrapib at 10 mg/kg and 100 mg/kg).
The symbols * and *** used in FIG. 1 and Table 3 indicate presence of significant difference at a risk ratio lower than 5% (p<0.05) and a risk ratio lower than 0.1% (p<0.001), respectively, in a multi-group comparison test (Dunnett's multiple comparison test) performed between the control group and each compound administration group. Further, increasing ratios of HDL cholesterol level in each group relative to the control group were calculated as HDL cholesterol increasing ratios in accordance with the following equation 2, and indicated in terms of %. HDL cholesterol increasing ratio (%)=[(Average HDL cholesterol level of each compound administration group−Average HDL cholesterol level of control group)/Average HDL cholesterol level of control group]×100 (Equation 2)

[3] = 10 mg/kg oral once a day over 7 days
[4] = 30 mg/kg oral once a day over 7 days
[5] = 100 mg/kg oral once a day over 7 days

## CCN(CC1CCCC1)c1ccc(C(F)(F)F)cc1CN(c1ncc(OCCS(C)(=O)=O)cn1)C(C)c1cc(C(F)(F)F)cc(C(F)(F)F)c1 (centres unmarked) [Example 3, N-{1-[3,5-bis(trifluoromethyl)phenyl]ethyl}-N-({2-[(cyclopentylmethyl)(ethyl)amino]-5-(trifluoromethyl)phenyl}methyl)-5-[2-(methylsulfonyl)ethoxy]pyrimidin-2-amine]
[1]
  IC50: 30 nM
[2]; [3]
  Average HDL cholesterol level ± SD: 118.5 ± 7.6*** mg/dl
  HDL cholesterol increasing ratio: 37.1%
[2]; [4]
  Average HDL cholesterol level ± SD: 124.4 ± 8.4*** mg/dl
  HDL cholesterol increasing ratio: 43.9%
[2]; [5]
  Average HDL cholesterol level ± SD: 126.9 ± 13.2*** mg/dl
  HDL cholesterol increasing ratio: 46.8%

## CCOC(=O)N1c2ccc(C(F)(F)F)cc2[C@@H](N(Cc2cc(C(F)(F)F)cc(C(F)(F)F)c2)C(=O)OC)C[C@H]1CC [Torcetrapib, 4(S)-[(3,5-bis-trifluoromethylbenzyl)methoxycarbonylamino]-2(R)-ethyl-6-trifluoromethyl-3,4-dihydro-2H-quinoline-1-carboxylic acid ethyl ester, reference compound]
[2]; [3]
  Average HDL cholesterol level ± SD: 90.6 ± 7.7 mg/dL
  HDL cholesterol increasing ratio: 4.8%
[2]; [5]
  Average HDL cholesterol level ± SD: 113.0 ± 23.2* mg/dl
  HDL cholesterol increasing ratio: 30.7%

— US7659271B2, “Pyrimidine compound having dibenzylamine structure and medicament comprising the same” (Kowa Company, Ltd., priority 2007, dated 2010)
